Results on five molecules are retold here after publication PMC5647378, “Structural and Mechanistic Analysis of Drosophila melanogaster Agmatine N-Acetyltransferase, an Enzyme that Catalyzes the Formation of N-Acetylagmatine” (Scientific Reports, 2017).

Numbering of substitutions follows the chain as printed. Names may count otherwise. “And” between values parts separate entries of the source, which are not always exact repeats. Equal values may be shown once. Read-outs that look alike come from different tables or passages of the source.

The target of data set [1] is T1, Drosophila melanogaster AgmNAT (CG15766), wild-type (Drosophila melanogaster, UniProt Q9W469). The experiment in a line: AgmNAT steady-state kinetics, coenzyme A release with Ellman's reagent (DTNB). The class given is biochemical. As to the method:
(§1) Steady-state kinetic constants for AgmNAT were determined by measuring the rate of coenzyme A release using Ellman’s reagent (DTNB) at 412 nm (molar absorptivity = 13,600 M^−1 cm^−1)[15]–[17]. […] Initial velocities were measured using a Cary 300 Bio UV-Visible spectrophotometer at 22 °C. Acyl-CoA kinetic constants were evaluated by holding the concentration of agmatine at a constant saturating concentration (5 mM). […] The apparent kinetic constants were determined by fitting the resulting data to equation 1 using SigmaPlot 12.0, where vo is the initial velocity, Vmax,app is the apparent maximal velocity, [S] is the substrate concentration, and Km,app is the apparent Michaelis constant. Each assay was performed in triplicate and the uncertainty for the kcat,app and (kcat/Km)app values were calculated using equation 2, where σ is the standard error.1 vo=Vmax,app[S]/Km,app+[S] 2 σ(x/y)=x/y(σx/x)^2+(σy/y)^2
On the technique in general: Ellman's reagent forms a yellow product with free thiols.

The next data set deals with T2, AgmNAT E34A mutant (Drosophila melanogaster, UniProt Q9W469, E34A).
T2 sequence (Q9W469 1-216 E34A): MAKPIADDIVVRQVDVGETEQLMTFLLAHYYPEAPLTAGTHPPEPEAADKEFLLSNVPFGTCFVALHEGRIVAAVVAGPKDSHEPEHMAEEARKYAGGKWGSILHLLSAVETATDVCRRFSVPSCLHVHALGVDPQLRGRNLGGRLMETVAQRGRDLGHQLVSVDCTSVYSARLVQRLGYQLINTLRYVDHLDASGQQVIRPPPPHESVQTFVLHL
The data set is described as follows: Steady-state kinetics of AgmNAT site-directed mutant E34A. The class given is biochemical. Conditions: for (kcat/Km)app–mutant/(kcat/Km)app–wild–type×100: E34A. The procedure:
(§2) Site-directed mutants of AgmNAT were constructed by the overlap extension method. Using the primers shown in Table S1, each mutant was amplified using pfuUltra High-Fidelity DNA polymerase with the following PCR conditions: initial denaturing step of 95 °C for 2 min, then 30 cycles of 95 °C for 30 s; 60 °C annealing temperature for 30 s; 72 °C extension step for 1 min; then a final extension step of 72 °C for 10 min. Following the amplification of the AgmNAT site-directed mutant, the sub-cloning, expression, and purification procedures are the same as discussed for the wild-type enzyme.
as §1

The next data set has as its target T3, AgmNAT P35A mutant (Drosophila melanogaster, UniProt Q9W469, P35A).
T3 sequence (Q9W469 1-216 P35A): T2 sequence (Q9W469 1-216 E34A) with A34E, P35A
The experiment in a line: Steady-state kinetics of AgmNAT site-directed mutant P35A. The class given is biochemical. As to the method:
as §2
as §1, with “Each assay was performed in triplicate and the uncertainty for the kcat,app and (kcat/Km)app values were calculated using equation 2, where σ is the standard error.1 vo=Vmax,app[S]/Km,app+[S] 2 σ(x/y)=x/y(σx/x)^2+(σy/y)^2” left out

For a further data set, the target named is T4, AgmNAT S171A mutant (Drosophila melanogaster, UniProt Q9W469, S171A).
T4 sequence (Q9W469 1-216 S171A): T2 sequence (Q9W469 1-216 E34A) with A34E, S171A
The data set is described as follows: Steady-state kinetics of AgmNAT site-directed mutant S171A. The data set is classed as biochemical. The following applies: for (kcat/Km)app–mutant/(kcat/Km)app–wild–type×100: S171A. As to the method:
as §2, §1

Another data set deals with T5, AgmNAT H206A mutant (Drosophila melanogaster, UniProt Q9W469, H206A).
T5 sequence (Q9W469 1-216 H206A): T2 sequence (Q9W469 1-216 E34A) with A34E, H206A
The experiment in a line: Steady-state kinetics of AgmNAT site-directed mutant H206A. The following applies: for increase of Km,app versus wild-type: H206A mutant; for (kcat/Km)app–mutant/(kcat/Km)app–wild–type×100: H206A. The class given is biochemical. As to the method: as §2, §1

For data set [2], the target named is T1, Drosophila melanogaster AgmNAT (CG15766), wild-type. The data set is described as follows: AgmNAT dead-end and product inhibition analysis. The data set is classed as biochemical. The procedure:
Initial velocities were determined by varying the concentration of one substrate, while holding the other substrate at a fixed concentration. […] The resulting initial velocity data was fit to equation 3 for an ordered Bi-Bi mechanism and equation 4 for a ping pong mechanism using IGOR Pro 6.34 A, where vo is the initial velocity, Vmax is the maximal velocity, Kia is the dissociation constant for substrate A, Kb is the Michaelis constant for substrate B, Ka is the Michaelis constant for substrate A, [A] is the concentration of substrate A, and [B] is the concentration of substrate B.3 vo=Vmax[A][B]/KiaKb+Ka[B]+Kb[A]+[A][B] 4 vo=Vmax[A][B]/Ka[B]+Kb[A]+[A][B]
Inhibition experiments by either substrate analogs or N-acetylagamatine were used to discriminate between an ordered, random sequential, or ping pong kinetic mechanism. […] Initial velocity patterns were generated by varying the concentration of one substrate, holding the other substrate concentration at its apparent Km, and changing the concentration of inhibitor for each data set in triplicate. The resulting data was fit to equations 5–7, for competitive, noncompetitive, and uncompetitive inhibition respectively using SigmaPlot 12.0. For […], vo is the initial velocity, Vmax,app is the apparent maximal velocity, Km,app is the apparent Michaelis constant, [S] is the substrate concentration, [I] is the inhibitor concentration, and Ki is the inhibition constant.5 vo=Vmax,app[S]/Km,app(1+[I]/Ki)+[S] 6 vo=Vmax,app[S]/Km,app(1+[I]/Ki)+[S](1+[I]/Ki) 7 vo=Vmax,app[S]/Km,app+[S](1+[I]/Ki)

For data set [3] the target is unchanged. The experiment in a line: AgmNAT dead-end and product inhibition analysis. The class given is biochemical. The following applies: inhibitor at 10 mM.
For the next data set, the target named is Glu34 (UniProt position 34, HYYPEEPLTAG). The data set is described as follows: kinetics. The following applies: 22 °C; MES (pH 6.5 and 7.0), Tris (pH 7.0-9.0), AmeP (pH 9.0 and 9.5). Concentrations for the pH series not stated (standard assay is 300 mM Tris with 150 µM DTNB).; Steady-state turnover; acetyl-CoA varied, agmatine as co-substrate (5 mM saturating in the standard assay); wild-type enzyme, triplicate.

Substrate in data set [4]: CC(=O)SCCNC(=O)CCNC(=O)[C@H](O)C(C)(C)COP(=O)(O)OP(=O)(O)OC[C@H]1O[C@@H](n2cnc3c(N)ncnc32)[C@H](O)[C@@H]1OP(=O)(O)O
The data set is described as follows: Steady-state kinetics of AgmNAT site-directed mutant H206A. The class given is biochemical, Drosophila melanogaster. The following applies: other: H206A, acetyl-CoA varied, saturating agmatine, pH 8.5.

Substrate in data set [5]: N=C(N)NCCCCN
Described as above. The following applies: other: H206A, agmatine varied, saturating acetyl-CoA, pH 8.5. The data set is classed as biochemical, Drosophila melanogaster.

T1 sequence (Q9W469 entry or part of it): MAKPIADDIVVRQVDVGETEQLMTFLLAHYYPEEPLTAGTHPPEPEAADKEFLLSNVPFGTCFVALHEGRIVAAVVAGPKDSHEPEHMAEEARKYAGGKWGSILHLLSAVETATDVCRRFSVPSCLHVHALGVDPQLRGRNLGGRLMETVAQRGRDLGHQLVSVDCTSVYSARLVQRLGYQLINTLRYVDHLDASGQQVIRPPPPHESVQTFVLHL

Usually Km stands for the substrate concentration at which the rate is half of its maximum. As for `CC(=O)SCCNC(=O)CCNC(=O)[C@H](O)C(C)(C)COP(=O)(O)OP(=O)(O)OC[C@H]1O[C@@H](n2cnc3c(N)ncnc32)[C@H](O)[C@@H]1OP(=O)(O)O` [Acetyl-CoA], the “(kcat/Km)app–mutant/(kcat/Km)app–wild–type×100” value in data set [1] (Wild-type, acetyl-CoA varied) was 100%; on AgmNAT E34A mutant (acetyl-CoA varied) it was 0.27%; at AgmNAT P35A mutant (acetyl-CoA varied) it was 0.86%; at AgmNAT S171A mutant (acetyl-CoA varied), 34%; at AgmNAT H206A mutant (acetyl-CoA varied), 2.3%. For the same molecule, the “kcat,app” value in [1] (Wild-type, acetyl-CoA varied, saturating agmatine, pH 8.5) was found to be 23 ± 1 s⁻¹; in [1] (acyl-CoA varied, 5 mM agmatine, 300 mM Tris-HCl pH 8.5, 150 µM DTNB), 23 ± 1 s⁻¹. Further, the Km in data set [1] (acyl-CoA varied, 5 mM agmatine, 300 mM Tris-HCl pH 8.5, 150 µM DTNB, read-out: Km,app) came out at 100 µM. In addition, the “decrease of Km,app versus wildtype” value at AgmNAT E34A mutant (E34A mutant, acetyl-CoA) is 6 fold. At AgmNAT S171A mutant (S171A mutant, acetyl-CoA), the “change (decrease) of Km,app versus wildtype” value was 3- to 4 fold. In addition, at AgmNAT H206A mutant (acetyl-CoA), the “increase of Km,app versus wild-type” value is listed as 2.3 fold.
`NCCCCN=C(N)N` [Agmatine, (4-aminobutyl)guanidine]: the “(kcat/Km)app–mutant/(kcat/Km)app–wild–type×100” value was found to be 100% in [1] (Wild-type, agmatine varied); 0.0038% on AgmNAT E34A mutant (agmatine varied); 3.2% at AgmNAT P35A mutant (agmatine varied); 2.7% on AgmNAT S171A mutant (agmatine varied); 4.7% at AgmNAT H206A mutant (agmatine varied). Besides, the “increase of Km,app versus wildtype” value on AgmNAT E34A mutant (E34A mutant, agmatine) turned out to be 20 fold. Also, the “change (increase) of Km,app versus wildtype” value at AgmNAT S171A mutant (S171A mutant, agmatine) is listed as 3- to 4 fold. In addition, the “increase of Km,app versus wild-type” value at AgmNAT H206A mutant (agmatine) was determined as 1.4 fold.
In general, Ki refers to the equilibrium dissociation constant of an inhibitor or competing ligand from its target. As to `COC(=O)[C@@H](N)CCCN=C(N)N` [Arginine methyl ester, L-arginine methyl ester], the “acceptance as amine substrate” value in data set [1] (amine substrate screen with acetyl-CoA) is “not AgmNAT substrates”. Moreover, the Ki in [2] (varied substrate acetyl-CoA, constant agmatine (0.3 mM), listed as arginine methyl ester, read-out: Ki,i) was at least 1 mM; in [2] (varied substrate acetyl-CoA, constant agmatine (0.3 mM), read-out: Ki,i), 2.9 ± 0.1 mM; in data set [2] (varied substrate agmatine, constant acetyl-CoA (0.1 mM; 104 µM), listed as arginine methyl ester, read-out: Ki,s) it was at least 1 mM; in data set [2] (varied substrate agmatine, constant acetyl-CoA (0.1 mM; 104 µM), read-out: Ki,s), 1.5 ± 0.1 mM. The “type of inhibition plot (in words)” value in [2] (versus acetyl-CoA) is on record as “uncompetitive”; in data set [2] (versus agmatine) it was “competitive”. The “decrease of the rate of N-acetylagmatine formation from acetyl-CoA and agmatine” value in data set [3] was ~ 50%.
The term pKa denotes the pH at which an ionisable group is half protonated. With “Agmatine N-acetyltransferase (AgmNAT; formerly arylalkylamine N-acetyltransferase-like 8, AANATL8) (Drosophila melanogaster)”, the pKa with Glu34 is 7.7 ± 0.1 and 7.3 ± 0.2 and ~7.5.

B1: AgmNAT H206A mutant (Drosophila melanogaster; H206A) (protein)
chain: T2 sequence (Q9W469 1-216 E34A) with A34E, H206A
As usually defined, the kcat is the number of substrate molecules converted per active site and unit of time at saturation. The kcat/Km is the turnover number divided by the Michaelis constant. Consider B1, for which, in data set [4], the Km entry is “(2.4 ± 0.3) × 10^2 μM”, the kcat is 1.3 ± 0.1 s⁻¹ and the kcat/Km is 5000 ± 1000 M⁻¹ s⁻¹. In data set [5], the Km turned out to be 420 ± 40 µM, the kcat turned out to be 1.2 ± 0.1 s⁻¹ and the kcat/Km amounted to 2800 ± 300 M⁻¹ s⁻¹.
